For orientation: IC50 means the midpoint of a concentration-inhibition curve. The low end stands for greater potency in that assay, the high end for weaker potency in that assay.

These results are taken from EP4471048A1, “PEPTIDE INHIBITORS OF INTERLEUKIN-23 RECEPTOR” (Zealand Pharma A/S, priority 2023, dated 2024).

This assay concerns the target T1, human IL-23R (Homo sapiens, UniProt Q5VWK5).
T1 sequence (Q5VWK5 22-629): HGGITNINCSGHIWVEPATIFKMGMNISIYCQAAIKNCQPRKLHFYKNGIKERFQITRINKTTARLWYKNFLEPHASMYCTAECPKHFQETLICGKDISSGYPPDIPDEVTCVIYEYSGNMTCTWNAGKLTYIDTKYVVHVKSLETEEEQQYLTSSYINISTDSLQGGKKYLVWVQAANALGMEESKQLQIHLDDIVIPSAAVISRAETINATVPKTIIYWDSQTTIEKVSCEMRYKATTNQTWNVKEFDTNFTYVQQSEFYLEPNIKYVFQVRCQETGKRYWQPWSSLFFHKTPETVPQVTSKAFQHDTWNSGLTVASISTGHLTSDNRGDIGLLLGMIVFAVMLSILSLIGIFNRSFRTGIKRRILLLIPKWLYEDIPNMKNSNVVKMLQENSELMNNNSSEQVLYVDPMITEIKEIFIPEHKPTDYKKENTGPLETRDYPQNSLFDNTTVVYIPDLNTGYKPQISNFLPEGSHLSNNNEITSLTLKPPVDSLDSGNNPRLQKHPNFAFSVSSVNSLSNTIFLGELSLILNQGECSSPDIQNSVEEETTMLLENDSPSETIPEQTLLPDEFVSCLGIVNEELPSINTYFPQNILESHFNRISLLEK
Kind of assay: biochemical. Conditions: for Emax: read-out: % displacement (hIL-23R NIuc). From the text: The compound binding affinity for IL-23R was estimated by the ability of compounds to displace a fluorophore-labelled reference compound from the human IL-23R. The assay principle relies on Bioluminescence Resonance Energy Transfer (BRET) between a fluorophore-labelled reference compound binding to the IL-23R part of a fusion protein consisting of the IL-23R fused to a Nanoluc luciferase enzyme (Nanoluc). The Nanoluc is placed in the N-terminus in close proximity to the binding domain of the ligand. Upon close proximity between the fluorophore of the fluorophore-labelled compound and the Nanoluc of the fusion protein, bioluminescence energy generated from conversion of a Nanoluc substrate, is transferred to the fluorophore resulting in an increase in BRET. In presence of an unlabelled compound, the unlabelled compound displaces the fluorophore-labelled peptide from its binding site resulting in a decrease in BRET. The concentration for which half of the fluorophore-labelled peptide is displaced by the unlabelled compound depends on the affinity of the compound for the IL-23R, and is termed the IC50 concentration.
The plasmid also contained a gene to confer resistance for the antibiotic hygromycin. A cell line stably expressing the Nluc-IL23R fusion protein was generated by transfection of HEK293 cells with the expression plasmid and selected with hygromycin for 3 weeks in Growth medium consisting of DMEM w/ Glutamax-I containing, 10% V/V FBS, 1% V/V P/S, 1 mM Sodium Pyruvate, and 1X NEAA, and 0.3 mg/mL hygromycin. The remaining cells were propagated and considered a stable expressing Nluc-IL23R fusion protein pool clone.
Cells expressing the Nluc-IL23R fusion protein were expanded in Growth medium and membranes prepared by homogenization of a cell pellet from 18 T175 flasks (4 °C in subsequent steps). The cell pellet was lysed Tris 10 mM, 7.5, 1 mM EDTA and protease inhibitors (Complete, Roche) and homogenized using a 15 mL glass-dounce by 50 strokes. The homogenate was spun at spin @1500 rpm for 10 min, the supernatant transferred to SV-34 tubes and spun at 40000g for 20 min at 4 °C to pellet the crude membranes. The supernatant was then removed, the pellet resuspended in 5 mL buffer containing 50 mM HEPES pH 7.4, 5 mM EGTA, and 5 mM MgCl2, and homogenized. Aliquots of the resuspended and homogenized membranes containing the Nluc-IL23R fusion protein were stored at -80 °C until use.
The plate was sealed with light impermeable plate seals, and incubated on an orbital shaker 400 rpm for 2 hours at room temperature. To determine the BRET ratio, the plate seal was removed and 25 µL of the Nanoluc substrate (Promega N1572) diluted 1:500 was added to each well and incubated for 1-2 minutes on an orbital shaker at 400 rpm. […] The BRET ratio was calculated as the fluorescence from the TAMRA/nanoluc bioluminescence.
Compound potency (IC50) and maximal displacement (% displacement) were estimated by computer-aided curve fitting using a 4-parameter logistic (4PL) non-linear model. […]
In this application, the inventors provide the data as IC50 values.

Molecules are shown by their SMILES. *1 amine or outer side, *2 acyl side, *3 side chain or, on linkers, in order; H or OH if unused. Where a SMILES comes first, the peptide text is derived from it. Bridges are numbered along the chain shown (N, C = ends). [ ]: non-standard residue; d: D form. Trp(1-Me) = Cn1cc(C[C@H](N)C(=O)O)c2ccccc21; X17 = O=C(C[C@@H](CCCN[*:3])N[*:2])[*:1]; 2Nal = N[C@@H](Cc1ccc2ccccc2c1)C(=O)O; AEF = NCCOc1ccc(C[C@H](N)C(=O)O)cc1; 3Pal = N[C@@H](Cc1cccnc1)C(=O)O; αMeL = CC(C)C[C@](C)(N)C(=O)O; dDab = NCC[C@@H](N)C(=O)O; Dab = NCC[C@H](N)C(=O)O; βAla = NCCC(=O)O

Consider `CC(C)C[C@]1(C)NC(=O)[C@H](Cc2ccc3ccccc3c2)NC(=O)[C@H](Cc2ccc(OCCN)cc2)NC(=O)[C@@H]2CC(=O)N[C@H](CCNC(=O)CC[C@@H](C(=O)N[C@@H](CCN)C(=O)N[C@@H](Cc3cccnc3)C(N)=O)NC1=O)C(=O)N[C@@H]([C@@H](C)O)C(=O)N[C@@H](C(C)C)C(=O)N[C@@H](Cc1c[nH]c3ccccc13)C(=O)N[C@@H](CCC(N)=O)C(=O)N2` [Compound 11, [{d}Dab](1c)(6c)^†TVWQD(6c)[Y(2-aminoethoxy)][2-Nal][2-Me-Leu]E(1c)[Dab][3-(3-Pyridyl)-Ala]-[NH2]] ([dDab]TVWQD[AEF][2Nal][αMeL]E[Dab][3Pal]-NH2; lactam 1-10, N-6), for which the IC50 came to 0.37 nM and the Emax came to 104%. Regarding `CC[C@H](C)[C@@H]1NC(=O)[C@@H]2CCCCNC(=O)CC[C@@H](C(=O)N3CCC[C@H]3C(=O)N[C@@H](Cc3cccnc3)C(=O)NC)NC(=O)[C@](C)(CC(C)C)NC(=O)[C@H](Cc3ccc4ccccc4c3)NC(=O)[C@H](Cc3ccc(OCCN)cc3)NC(=O)[C@H](CCC(=O)N2)NC(=O)[C@H](CCC(N)=O)NC(=O)[C@H](Cc2c[nH]c3ccccc23)NC(=O)[C@H](C(C)C)NC1=O` [Compound 63, K(1c)(6c)^†IVWQE(6c)[Y(2-aminoethoxy)][2-Nal][2-Me-Leu]E(1c)P[3-(3-Pyridyl)-Ala]-[NHMe]] (KIVWQE[AEF][2Nal][αMeL]EP[3Pal]-NHMe; lactam 1-10, N-6), the “% displacement (hIL-23R NIuc)” value is 98% and 150 nM corresponded to half-maximal inhibition (IC50). On to `CNC(=O)[C@H](Cc1cccnc1)NC(=O)[C@H](CCN)NC(=O)[C@@H]1CCC(=O)NCC[C@@H]2NC(=O)CC[C@H](NC(=O)[C@H](CCC(N)=O)NC(=O)[C@H](Cc3c[nH]c4ccccc34)NC(=O)[C@H]([C@@H](C)O)NC2=O)C(=O)N[C@@H](Cc2ccc(OCCN)cc2)C(=O)N[C@@H](Cc2ccc3ccccc3c2)C(=O)N[C@@](C)(CC(C)C)C(=O)N1` [Compound 37, [Dab](1c)(6c)^†TWQE(6c)[Y(2-aminoethoxy)][2-Nal][2-Me-Leu]E(1c)[Dab][3-(3-Pyridyl)-Ala]-[NHMe]], for which the midpoint of inhibition, the IC50, lay at 1.4 nM and the Emax was found to be 99%. For `CC(C)C[C@]1(C)NC(=O)[C@H](Cc2ccc3ccccc3c2)NC(=O)[C@H](Cc2ccc(OCCN)cc2)NC(=O)[C@@H]2CC(=O)N[C@H](CCCNC(=O)CC[C@@H](C(=O)N[C@@H](CCN)C(=O)N[C@@H](Cc3cccnc3)C(N)=O)NC1=O)CC(=O)N[C@@H]([C@@H](C)O)C(=O)N[C@@H](Cc1c[nH]c3ccccc13)C(=O)N[C@@H](CCC(N)=O)C(=O)N2` [Compound 13, [{d}bLys](1c)(6c)^†TWQD(6c)[Y(2-aminoethoxy)][2-Nal][2-Me-Leu]E(1c)[Dab][3-(3-Pyridyl)-Ala]-[NH2]] (TWQD[AEF][2Nal][αMeL]E[Dab][3Pal]-NH2; linker N-4-8 via X17), the “% displacement (hIL-23R NIuc)” value was determined as 101% and the IC50 turned out to be 1.4 nM.

In the case of `COc1ccc(C[C@@H]2NC(=O)[C@@H]3CCC(=O)N[C@@H](CCCCNC(=O)CC[C@@H](C(=O)N[C@@H](CCCCNC(=O)CCc4ccncc4)C(N)=O)NC(=O)[C@](C)(CC(C)C)NC(=O)[C@H](Cc4ccc5ccccc5c4)NC2=O)C(=O)N[C@@H]([C@@H](C)O)C(=O)N[C@@H](C(C)C)C(=O)N[C@@H](Cc2c[nH]c4ccccc24)C(=O)N[C@@H](CCC(N)=O)C(=O)N3)cc1` [Compound 55, K(1c)(6c)^†TVWQE(6c)[Y(Me)][2-Nal][2-Me-Leu]E(1c)[K(4-pyridylpropionyl)]-[NH2]], half-maximal inhibition (IC50) was put at 140 nM and the Emax is 100%.

With `CC[C@H](C)[C@@H]1NC(=O)[C@@H]2CCCCNC(=O)CC[C@@H](C(=O)N[C@@H](CCN)C(=O)N[C@@H](Cc3cncnc3)C(=O)NC)NC(=O)[C@](C)(CC(C)C)NC(=O)[C@H](Cc3ccc4ccccc4c3)NC(=O)[C@H](Cc3ccc(OCCN)cc3)NC(=O)[C@H](CCC(=O)N2)NC(=O)[C@H](CCC(N)=O)NC(=O)[C@H](Cc2c[nH]c3ccccc23)NC(=O)[C@H](C(C)C)NC1=O` [Compound 78, K(1c)(6c)^†IVWQE(6c)[Y(2-aminoethoxy)][2-Nal][2-Me-Leu]E(1c)[Dab][3-(3,5-Pyrimidyl)-Ala]-[NHMe]], the “% displacement (hIL-23R NIuc)” value came to 100% and the midpoint of inhibition, the IC50, lay at 3 nM.

With `CC(C)[C@@H]1NC(=O)[C@H]([C@@H](C)O)NC(=O)[C@@H]2CCCCNC(=O)CC[C@@H]3NC(=O)[C@H](CCNC(=O)[C@H](Cc4cccnc4)NC(=O)[C@H](CCN)NC3=O)NC(=O)[C@H](Cc3ccc4ccccc4c3)NC(=O)[C@H](Cc3ccc(OCCN)cc3)NC(=O)[C@H](CCC(=O)N2)NC(=O)[C@H](CCC(N)=O)NC(=O)[C@H](Cc2c[nH]c3ccccc23)NC1=O` [Compound 76, K(1c)(6c)^†TVWQE(6c)[Y(2-aminoethoxy)][2-Nal][Dab](7c)E(1c)[Dab][3-(3-Pyridyl)-Ala](7c)^‡] (KTVWQE[AEF][2Nal][Dab]E[Dab][3Pal]; lactam 1-10, 9-C, N-6), the IC50 amounted to 3.7 nM and the Emax amounted to 92%.

For the molecule `CNC(=O)[C@H](Cc1cccnc1)NC(=O)[C@H](CCN)NC(=O)[C@@H]1CCC(=O)NCCCC[C@@H]2NC(=O)CC[C@H](NC(=O)[C@H](CCC(N)=O)NC(=O)[C@H](Cc3cn(C)c4ccccc34)NC(=O)CCNC2=O)C(=O)N[C@@H](Cc2ccc(OCCN)cc2)C(=O)N[C@@H](Cc2ccc3ccccc3c2)C(=O)N[C@@](C)(CC(C)C)C(=O)N1` [Compound 79, K(1c)(6c)^†[3-Aminopropanoyl][1-Me-Trp]QE(6c)[Y(2-aminoethoxy)][2-Nal][2-Me-Leu]E(1c)[Dab][3-(3-Pyridyl)-Ala]-[NHMe]] (K[βAla][Trp(1-Me)]QE[AEF][2Nal][αMeL]E[Dab][3Pal]-NHMe; lactam 1-9, N-5), the IC50 worked out at 0.02 nM and the Emax came to 100%. On to `CNC(=O)[C@H](Cc1cccnc1)NC(=O)[C@H](CCN)NC(=O)[C@@H]1CCCNC(=O)CC[C@@H]2NC(=O)CC[C@H](NC(=O)[C@H](CCC(N)=O)NC(=O)[C@H](Cc3c[nH]c4ccccc34)NC(=O)[C@H]([C@@H](C)O)NC2=O)C(=O)N[C@@H](Cc2ccc(OCCN)cc2)C(=O)N[C@@H](Cc2ccc3ccccc3c2)C(=O)N[C@@](C)(CC(C)C)C(=O)N1` [Compound 40, E(1c)(6c)^†TWQE(6c)[Y(2-aminoethoxy)][2-Nal][2-Me-Leu][Orn](1c)[Dab][3-(3-Pyridyl)-Ala]-[NHMe]], for which the Emax came to 100%. Take `CC[C@H](C)[C@@H]1NC(=O)[C@@H]2CCCCNC(=O)CC[C@@H](C(=O)NCC(=O)N[C@H](Cc3cccnc3)C(N)=O)NC(=O)[C@](C)(C(C)C)NC(=O)[C@H](CC3CC3)NC(=O)[C@H](Cc3ccc(C)cc3)NC(=O)[C@H](CCC(=O)N2)NC(=O)[C@H](CCC(N)=O)NC(=O)[C@H](Cc2c[nH]c3ccccc23)NC(=O)[C@H](C(C)C)NC1=O` [Compound 23, K(1c)(6c)^†IVWQE(6c)[F(4-Me)][Cyclopropyl-Ala][2-Me-Val]E(1c)G[{d}3-(3-Pyridyl)-Ala]-[NH2]]: the “% displacement (hIL-23R NIuc)” value was found to be 111% and the IC50 amounted to 89 nM.
